Assays:
[1] = target: Nuclear receptor subfamily 4 group A member 3 (Homo sapiens, UniProt Q92570); assay: Inverse agonist activity at human NOR-1 (393 to 626 residues) transfected in HEK293T cells incubated for 16 hrs by firefly/renilla based Dual-Glo luciferase assay; type: cell-based
[2] = target: T1, Nuclear receptor subfamily 1 group I member 2 (Homo sapiens, UniProt O75469); assay: Inverse agonist activity at human PXR transfected in HEK293T cells incubated for 16 hrs by firefly/renilla based Dual-Glo luciferase assay; type: cell-based
T1 sequence (O75469 whole entry): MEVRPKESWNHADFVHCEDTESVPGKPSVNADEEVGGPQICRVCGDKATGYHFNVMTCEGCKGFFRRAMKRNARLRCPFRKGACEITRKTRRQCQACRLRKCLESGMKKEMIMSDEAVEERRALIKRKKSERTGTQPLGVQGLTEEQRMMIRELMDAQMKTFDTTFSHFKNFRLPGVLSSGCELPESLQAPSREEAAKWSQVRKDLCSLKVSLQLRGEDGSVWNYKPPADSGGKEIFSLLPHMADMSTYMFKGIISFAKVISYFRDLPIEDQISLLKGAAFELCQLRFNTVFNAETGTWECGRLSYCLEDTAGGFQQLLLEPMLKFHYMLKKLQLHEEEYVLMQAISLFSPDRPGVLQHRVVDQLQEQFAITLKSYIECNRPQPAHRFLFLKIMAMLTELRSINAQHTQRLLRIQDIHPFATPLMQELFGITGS

[3] = target: T2, Nuclear receptor subfamily 1 group I member 3 (Homo sapiens, UniProt Q14994); assay: Inverse agonist activity at human CAR transfected in HEK293T cells incubated for 16 hrs by firefly/renilla based Dual-Glo luciferase assay; type: cell-based
T2 sequence (Q14994 whole entry): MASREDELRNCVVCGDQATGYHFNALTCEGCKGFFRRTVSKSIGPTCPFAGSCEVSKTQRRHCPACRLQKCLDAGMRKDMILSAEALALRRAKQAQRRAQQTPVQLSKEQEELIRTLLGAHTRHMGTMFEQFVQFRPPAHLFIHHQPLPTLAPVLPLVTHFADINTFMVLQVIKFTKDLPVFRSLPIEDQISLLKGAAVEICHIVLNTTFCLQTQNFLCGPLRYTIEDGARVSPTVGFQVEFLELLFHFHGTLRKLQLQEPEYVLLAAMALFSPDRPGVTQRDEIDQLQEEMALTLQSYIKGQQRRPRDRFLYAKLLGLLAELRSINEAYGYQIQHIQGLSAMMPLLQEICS

[4] = in vitro; details: male, Sprague-Dawley, rat, liver microsomes
[5] = target: Nuclear receptor subfamily 4 group A member 2 (Homo sapiens, UniProt P43354); assay: Inverse agonist activity at Gal4-fused human […] Nurr1 LBD transfected in HEK293T cells assessed as suppression of Nurr1 activation incubated for 16 hrs by firefly/renilla based Dual-Glo luciferase assay; type: cell-based
Sequence of Nuclear receptor subfamily 4 group A member 2 (P43354 whole entry, the tested form may be a part): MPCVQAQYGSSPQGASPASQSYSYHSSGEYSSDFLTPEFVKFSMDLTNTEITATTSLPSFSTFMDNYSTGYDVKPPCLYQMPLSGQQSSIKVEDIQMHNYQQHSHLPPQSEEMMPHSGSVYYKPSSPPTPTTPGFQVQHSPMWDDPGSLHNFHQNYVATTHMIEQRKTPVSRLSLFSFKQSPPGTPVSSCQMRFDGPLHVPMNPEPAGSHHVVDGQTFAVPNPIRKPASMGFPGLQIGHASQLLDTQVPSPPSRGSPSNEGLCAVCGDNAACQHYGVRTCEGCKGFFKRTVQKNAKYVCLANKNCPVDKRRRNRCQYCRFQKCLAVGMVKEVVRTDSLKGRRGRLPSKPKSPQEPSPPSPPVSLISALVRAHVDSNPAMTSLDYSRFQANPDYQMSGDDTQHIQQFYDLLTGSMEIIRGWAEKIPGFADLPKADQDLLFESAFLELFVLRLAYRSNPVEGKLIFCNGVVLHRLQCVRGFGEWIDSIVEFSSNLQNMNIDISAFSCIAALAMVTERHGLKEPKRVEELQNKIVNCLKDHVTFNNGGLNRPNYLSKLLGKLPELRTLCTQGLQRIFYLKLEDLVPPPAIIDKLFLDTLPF

Sequence of Nuclear receptor subfamily 4 group A member 3 (Q92570 whole entry, the tested form may be a part): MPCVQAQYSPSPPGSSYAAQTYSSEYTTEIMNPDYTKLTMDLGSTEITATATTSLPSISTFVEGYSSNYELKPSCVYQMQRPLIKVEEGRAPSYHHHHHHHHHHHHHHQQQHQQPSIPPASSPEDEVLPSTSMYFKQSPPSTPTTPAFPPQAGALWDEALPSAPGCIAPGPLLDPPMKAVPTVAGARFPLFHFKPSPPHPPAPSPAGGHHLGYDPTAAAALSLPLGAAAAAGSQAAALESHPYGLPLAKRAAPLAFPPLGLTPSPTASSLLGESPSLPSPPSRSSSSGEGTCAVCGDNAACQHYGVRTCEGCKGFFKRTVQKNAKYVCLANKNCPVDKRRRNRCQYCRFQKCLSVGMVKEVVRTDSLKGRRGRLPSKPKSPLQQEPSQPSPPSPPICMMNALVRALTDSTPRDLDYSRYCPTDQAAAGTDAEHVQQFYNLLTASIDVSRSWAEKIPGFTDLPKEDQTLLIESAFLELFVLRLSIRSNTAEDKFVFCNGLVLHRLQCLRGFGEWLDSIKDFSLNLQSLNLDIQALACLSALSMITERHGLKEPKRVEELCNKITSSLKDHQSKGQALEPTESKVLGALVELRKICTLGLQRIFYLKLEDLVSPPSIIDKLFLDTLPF

| IC50 [1] | Activity [2] | half-life at 1 h, 10 µM [4] | Structure (SMILES) | further results |
| --- | --- | --- | --- | --- |
| 29 µM | Active |  | CN(C)C(=O)CCc1nc(-c2ccccc2)c(-c2ccccc2Cl)o1 | Activity [3]: Active |
|  |  | 30 min | CN(C)C(=O)/C=C/c1nc(-c2ccccc2)c(-c2ccccc2)o1 |  |
|  |  |  | Cc1cccc(-c2oc(CCC(=O)O)nc2-c2ccccc2)c1 | IC50 [5]: > 50 µM |
|  |  | 64 min | CC(C)NCC(O)COc1cccc2ccccc12 (stereo not drawn) [PROPRANOLOL] |  |
| 3.8 µM | Active |  | O=C(O)/C=C/c1nc(-c2ccccc2)c(-c2ccccc2)o1 |  |
